Laboratory results published in patent EP4745130A1, “CRYSTAL FORMS OF TUBULIN-SRC DUAL-TARGETING INHIBITOR, PREPARATION METHOD THEREFOR AND USE THEREOF” (Hubei Bio-Pharmaceutical Industrial Technological Institute …, priority 2023, dated 2025).
Counter-ions that a name gives are not always drawn. Each block holds one molecule with its values, some of them ahead of it.

Columns and labels:
[1] = Hygroscopicity test by dynamic vapor sorption (DVS); format: physicochemical; details: DVS, 25°C, 0%RH to 95%RH
Method: The dynamic vapor sorption (DVS) curve was collected on DVS IntrInsic from SMS (surface measurement systems). The relative humidity at 25°C was corrected using the deliquescence points of LiCl, Mg(NO3)2, and KCl. Table 18 DVS test parameters
The percentage change in sample mass was collected under constant temperature at 25°C as humidity varied from 0%RH to 95%RH.

[2] = Dynamic solubility experiment at 37°C (water, SGF, FaSSIF, FeSSIF); details: for S: solubility: solid feed 10 mg/mL; for pH: pH value of the filtrate
Method: Rotating mixing was carried out at 37°C at a solid feed concentration of 10 mg/mL (calculated as the compound of Formula I). […] After sampling at each time point, the samples were centrifuged (10000 rpm) and filtered (0.45 µm PTFE filter head), and the HPLC concentration and pH value of the filtrate were measured.
100 mg of NaCl and 50 mg of Triton X-100 were weighed into a 50 mL volumetric flask, and purified water was added to complete dissolution. 816 µL of 1 M hydrochloric acid was added thereto, and the pH was adjusted to 1.8 with 1 M hydrochloric acid or 1 M NaOH solution. Purified water was added to make up to volume.
340 mg of anhydrous NaH2PO4 and 620 mg of NaCl were weighed into a 100 mL volumetric flask. Purified water was added to complete dissolution, followed by addition of 55.44 µL of 50% NaOH solution, and the pH was adjusted to 6.5 using 1M HCl or 1M NaOH solution. Purified water was added to make up to volume. 110 mg of SIF powder was then weighed into a 50 mL volumetric flask, added with the above solution to complete dissolution and make up to volume.
0.82 mL of glacial acetic acid and 1.18 g of NaCl were added to a 100 mL volumetric flask. Purified water was added to complete dissolution, followed by addition of 528 µL of 50% NaOH solution, and the pH was adjusted to 5.0 using 1M HCl or 1M NaOH solution. Purified water was added to make up to volume. 560 mg of SIF powder was then weighed into a 50 mL volumetric flask, added with the above solution to complete dissolution and make up to volume.

[3] = Solid-state stability (XRPD and HPLC after open storage); format: physicochemical; details: for Crystal form: XRPD
Method: The purity test, dynamic solubility test, and stability test in the assay were measured using an Agilent 1260 high-performance liquid chromatograph, and the salt formation molar ratio of ions was tested by ion chromatography, and the analytical conditions are shown in Table 19 and Table 20. Table 19 High-performance liquid chromatography test conditions

[4] = Heating / variable temperature XRPD (VT-XRPD), crystal form conversion; format: physicochemical
Method: The XRPD pattern was collected on an X-ray powder diffraction analyzer produced by PANalytacal, and the scanning parameters are shown in Table 16. Table 16 XRPD test parameters
The free form crystal form B sample was obtained by dissolving the compound of Formula I in MeOH, removing the solvent by rotary evaporation under reduced pressure, and then transferring the resulting gel-like sample for vacuum drying at 50°C. The XRPD and TGA/DSC characterization results are shown in FIGS. 4-6, and the XRPD diffraction peak data of the free form crystal form B are shown in Table 23. […] The TGA weight loss of the free form crystal form B is low, and the free form crystal form B is an anhydrous crystal form.
Combined with the TGA/DSC and ^1H NMR results of the crystal form A of the phosphate salt, the crystal form A of the phosphate salt was a hydrate, which dehydrated under heating conditions and converted to anhydrous crystal form B of the phosphate salt.

[5] = 25°C/60%RH/open, 1 week, listed as Crystal form A ofp-toluenesulfonate salt
[6] = 40°C/75%RH/open, 1 week, listed as Crystal form A ofp-toluenesulfonate salt

hygroscopicity ([1]; listed as crystal form A of the benzenesulfonate salt): slightly hygroscopic | S: solubility ([2]; FaSSIF, 1 hour, 60 min): 3980 µg/mL | S: solubility ([2]; FaSSIF, 4 hours, 240 min): 3640 µg/mL | S: solubility ([2]; FaSSIF, 24 hours, 1440 min): 3550 µg/mL | S: solubility ([2]; FeSSIF, 1 hour, 60 min): 3150 µg/mL | S: solubility ([2]; FeSSIF, 4 hours, 240 min): 2890 µg/mL | S: solubility ([2]; FeSSIF, 24 hours, 1440 min): 2910 µg/mL | S: solubility ([2]; H2O, 1 hour, 60 min): 8290 µg/mL | S: solubility ([2]; H2O, 4 hours, 240 min): 8390 µg/mL | S: solubility ([2]; H2O, 24 hours, 1440 min): 8120 µg/mL | S: solubility ([2]; SGF, 1 hour, 60 min): 9940 µg/mL | S: solubility ([2]; SGF, 4 hours, 240 min): 9950 µg/mL | S: solubility ([2]; SGF, 24 hours, 1440 min): 9700 µg/mL | pH ([2]; FaSSIF, 1 hour): 6.1 | pH ([2]; FaSSIF, 4 hours): 6.1 | pH ([2]; FaSSIF, 24 hours): 6.1 | pH ([2]; FeSSIF, 1 hour): 4.9 | pH ([2]; FeSSIF, 4 hours): 4.9 | pH ([2]; FeSSIF, 24 hours): 4.9 | pH ([2]; H2O, 1 hour): 5.6 | pH ([2]; H2O, 4 hours): 5.6 | pH ([2]; H2O, 24 hours): 5.6 | pH ([2]; SGF, 1 hour): 3.4 | pH ([2]; SGF, 4 hours): 3.5 | pH ([2]; SGF, 24 hours): 3.5 | Purity (area%) ([3]; 25°C/60%RH/open, 1 week): 97.61 area% | Relative to initial (%) ([3]; 25°C/60%RH/open, 1 week): 99.8% | Crystal form ([3]; 25°C/60%RH/open, 1 week): Crystal form A of benzenesulfonate salt | Purity (area%) ([3]; 40°C/75%RH/open, 1 week): 97.61 area% | Relative to initial (%) ([3]; 40°C/75%RH/open, 1 week): 99.8% | Crystal form ([3]; 40°C/75%RH/open, 1 week): Crystal form A of benzenesulfonate salt | Purity (area%) ([3]; Initial): 97.78 area%
Compound: Cc1cc(OCCN2C[C@H]3COC[C@H]3C2)ccc1-c1ccc(CC(=O)NCc2ccccc2)nc1 [Crystal form A of benzenesulfonate salt]

hygroscopicity ([1]; listed as crystal form A of the p-toluenesulfonate salt): slightly hygroscopic | S: solubility ([2]; FaSSIF, 1 hour, listed as Crystal form A ofp-toluenesulfonate salt, 60 min): 2780 µg/mL | S: solubility ([2]; FaSSIF, 4 hours, listed as Crystal form A ofp-toluenesulfonate salt, 240 min): 2780 µg/mL | S: solubility ([2]; FaSSIF, 24 hours, listed as Crystal form A ofp-toluenesulfonate salt, 1440 min): 2680 µg/mL | S: solubility ([2]; FeSSIF, 1 hour, listed as Crystal form A ofp-toluenesulfonate salt, 60 min): 4120 µg/mL | S: solubility ([2]; FeSSIF, 4 hours, listed as Crystal form A ofp-toluenesulfonate salt, 240 min): 2510 µg/mL | S: solubility ([2]; FeSSIF, 24 hours, listed as Crystal form A ofp-toluenesulfonate salt, 1440 min): 2300 µg/mL | S: solubility ([2]; H2O, 1 hour, listed as Crystal form A ofp-toluenesulfonate salt, 60 min): 5970 µg/mL | S: solubility ([2]; H2O, 4 hours, listed as Crystal form A ofp-toluenesulfonate salt, 240 min): 6130 µg/mL | S: solubility ([2]; H2O, 24 hours, listed as Crystal form A ofp-toluenesulfonate salt, 1440 min): 5750 µg/mL | S: solubility ([2]; SGF, 1 hour, listed as Crystal form A ofp-toluenesulfonate salt, 60 min): 9410 µg/mL | S: solubility ([2]; SGF, 4 hours, listed as Crystal form A ofp-toluenesulfonate salt, 240 min): 9460 µg/mL | S: solubility ([2]; SGF, 24 hours, listed as Crystal form A ofp-toluenesulfonate salt, 1440 min): 8970 µg/mL | pH ([2]; FaSSIF, 1 hour, listed as Crystal form A ofp-toluenesulfonate salt): 6.0 | pH ([2]; FaSSIF, 4 hours, listed as Crystal form A ofp-toluenesulfonate salt): 6.1 | pH ([2]; FaSSIF, 24 hours, listed as Crystal form A ofp-toluenesulfonate salt): 6.1 | pH ([2]; FeSSIF, 1 hour, listed as Crystal form A ofp-toluenesulfonate salt): 4.9 | pH ([2]; FeSSIF, 4 hours, listed as Crystal form A ofp-toluenesulfonate salt): 4.9 | pH ([2]; FeSSIF, 24 hours, listed as Crystal form A ofp-toluenesulfonate salt): 4.9 | pH ([2]; H2O, 1 hour, listed as Crystal form A ofp-toluenesulfonate salt): 5.3 | pH ([2]; H2O, 4 hours, listed as Crystal form A ofp-toluenesulfonate salt): 5.4 | pH ([2]; H2O, 24 hours, listed as Crystal form A ofp-toluenesulfonate salt): 5.2 | pH ([2]; SGF, 1 hour, listed as Crystal form A ofp-toluenesulfonate salt): 3.3 | pH ([2]; SGF, 4 hours, listed as Crystal form A ofp-toluenesulfonate salt): 3.3 | pH ([2]; SGF, 24 hours, listed as Crystal form A ofp-toluenesulfonate salt): 3.3 | Purity (area%) [3, 5]: 97.38 area% | Relative to initial (%) [3, 5]: 99.7% | Purity (area%) [3, 6]: 97.38 area% | Relative to initial (%) [3, 6]: 99.7% | Purity (area%) ([3]; Initial, listed as Crystal form A ofp-toluenesulfonate salt): 97.67 area%
Compound: Cc1cc(OCCN2C[C@H]3COC[C@H]3C2)ccc1-c1ccc(CC(=O)NCc2ccccc2)nc1
Crystal form [3, 5]: Crystal form A of p-toluenesulfonate salt | Crystal form [3, 6]: Crystal form A of p-toluenesulfonate salt

hygroscopicity ([1]; listed as crystal form B of the oxalate salt): slightly hygroscopic | S: solubility ([2]; FaSSIF, 1 hour, 60 min): 9270 µg/mL | S: solubility ([2]; FaSSIF, 4 hours, 240 min): 8890 µg/mL | S: solubility ([2]; FaSSIF, 24 hours, 1440 min): 8470 µg/mL | S: solubility ([2]; FeSSIF, 1 hour, 60 min): 3800 µg/mL | S: solubility ([2]; FeSSIF, 4 hours, 240 min): 3660 µg/mL | S: solubility ([2]; FeSSIF, 24 hours, 1440 min): 3480 µg/mL | S: solubility ([2]; H2O, 1 hour, 60 min): 9650 µg/mL | S: solubility ([2]; H2O, 4 hours, 240 min): 9650 µg/mL | S: solubility ([2]; H2O, 24 hours, 1440 min): 9360 µg/mL | S: solubility ([2]; SGF, 1 hour, 60 min): 9990 µg/mL | S: solubility ([2]; SGF, 4 hours, 240 min): 9790 µg/mL | S: solubility ([2]; SGF, 24 hours, 1440 min): 9610 µg/mL | pH ([2]; FaSSIF, 1 hour): 4.2 | pH ([2]; FaSSIF, 4 hours): 4.2 | pH ([2]; FaSSIF, 24 hours): 4.2 | pH ([2]; FeSSIF, 1 hour): 4.7 | pH ([2]; H2O, 1 hour): 3.8 | pH ([2]; H2O, 4 hours): 3.8 | pH ([2]; H2O, 24 hours): 3.9 | pH ([2]; SGF, 1 hour): 3.1 | pH ([2]; SGF, 4 hours): 3.1 | pH ([2]; SGF, 24 hours): 3.1 | Purity (area%) ([3]; 25°C/60%RH/open, 1 week): 97.49 area% | Relative to initial (%) ([3]; 25°C/60%RH/open, 1 week): 100.0% | Crystal form ([3]; 25°C/60%RH/open, 1 week): Crystal form B of oxalate salt | Purity (area%) ([3]; 40°C/75%RH/open, 1 week): 97.52 area% | Relative to initial (%) ([3]; 40°C/75%RH/open, 1 week): 100.1% | Crystal form ([3]; 40°C/75%RH/open, 1 week): Crystal form B of oxalate salt | Purity (area%) ([3]; Initial): 97.47 area%
Compound: Cc1cc(OCCN2C[C@H]3COC[C@H]3C2)ccc1-c1ccc(CC(=O)NCc2ccccc2)nc1 [Crystal form B of oxalate salt]

hygroscopicity ([1]; listed as crystal form A of the phosphate salt): rapidly dehydrates below 10% RH | S: solubility ([2]; FaSSIF, 1 hour, 60 min): 6630 µg/mL | S: solubility ([2]; FaSSIF, 4 hours, 240 min): 6320 µg/mL | S: solubility ([2]; FaSSIF, 24 hours, 1440 min): 6140 µg/mL | S: solubility ([2]; FeSSIF, 1 hour, 60 min): 5130 µg/mL | S: solubility ([2]; FeSSIF, 4 hours, 240 min): 4120 µg/mL | S: solubility ([2]; FeSSIF, 24 hours, 1440 min): 3730 µg/mL | S: solubility ([2]; H2O, 1 hour, 60 min): 9830 µg/mL | S: solubility ([2]; H2O, 4 hours, 240 min): 9650 µg/mL | S: solubility ([2]; H2O, 24 hours, 1440 min): 9120 µg/mL | S: solubility ([2]; SGF, 1 hour, 60 min): 9140 µg/mL | S: solubility ([2]; SGF, 4 hours, 240 min): 9670 µg/mL | S: solubility ([2]; SGF, 24 hours, 1440 min): 9070 µg/mL | pH ([2]; FaSSIF, 1 hour): 5.9 | pH ([2]; FaSSIF, 4 hours): 5.9 | pH ([2]; FaSSIF, 24 hours): 5.9 | pH ([2]; FeSSIF, 1 hour): 4.9 | pH ([2]; FeSSIF, 4 hours): 4.9 | pH ([2]; FeSSIF, 24 hours): 4.9 | pH ([2]; H2O, 1 hour): 5.3 | pH ([2]; H2O, 4 hours): 5.4 | pH ([2]; H2O, 24 hours): 5.3 | pH ([2]; SGF, 1 hour): 3.4 | pH ([2]; SGF, 4 hours): 3.4 | pH ([2]; SGF, 24 hours): 3.4 | Purity (area%) ([3]; 25°C/60%RH/open, 1 week): 97.84 area% | Relative to initial (%) ([3]; 25°C/60%RH/open, 1 week): 100.2% | Crystal form ([3]; 25°C/60%RH/open, 1 week): Crystal form A of phosphate salt | Purity (area%) ([3]; 40°C/75%RH/open, 1 week): 97.55 area% | Relative to initial (%) ([3]; 40°C/75%RH/open, 1 week): 99.9% | Crystal form ([3]; 40°C/75%RH/open, 1 week): Crystal form A of phosphate salt | Purity (area%) ([3]; Initial): 97.62 area% | crystal form after heating ([4]; heating to 150°C under nitrogen, cooling to 30°C, exposing to air): conversion to free form crystal form B | crystal form after purging ([4]; purging under N2 for 20 min): remained unchanged
Compound: Cc1cc(OCCN2C[C@H]3COC[C@H]3C2)ccc1-c1ccc(CC(=O)NCc2ccccc2)nc1 [Crystal form A of phosphate salt]
